Measured values: a melting point compilation (Tetko et al.; mined from patent text by program, amines drawn as free bases though some values may be those of a salt)

| melting point [°C] | Compound |
| --- | --- |
| 177 to 180 | C[C@@H](NS(C)(=O)=O)[C@](O)(Cn1cncn1)c1ccc(Cl)cc1Cl (relative stereo) |
| 53.4 | CC(C)(C)OC(=O)c1ccc(CBr)cc1 |
| 248 to 249 | O=C(O)c1cc2c(F)ccc(Cl)c2s1 |
| 178 to 180 | Cn1nc(-c2c(F)cccc2Cl)nc1-c1sc(Br)c(Cl)c1Cl |
| 181 to 182 | COC(=O)/C=C(\c1ccccc1)c1ccc2c(c1)C(C)(C)OC(=O)N2 |
| 196 to 198 | CN1CCc2c(cccc2NC(=O)c2ccccc2[N+](=O)[O-])C1 |
| 178 to 179 | CCCCc1nc(Cl)c(C=O)n1Cc1ccc(-c2ccccc2-c2n[nH]c(=O)o2)cc1 |
| 95 | O=Cc1cncc(Br)c1 |
| 198 to 200 | O=C(O)c1cn(-c2nccs2)c2c(F)c(F)c(F)cc2c1=O |
| 119 to 121 | COC(=O)C=C[C@@H](Cc1cn(CC=Cc2ccccc2)c2ccccc12)NC(=O)OC(C)(C)C |
| 209 | CC(C)(C)c1cc2c(c(C(C)(C)C)c1O)CC1(CCSCC1)O2 |
| 91 to 97 | N#CCc1ccc(OCc2ccccc2)c([N+](=O)[O-])c1 |
| 107 to 108 | COCCc1ccc(OCC(O)CNCCNC(=O)C2CCCOC2)cc1 (configuration not stated) |
| 144 to 145 | CCCCCCn1c(=O)[nH][nH]c1=O |
| 233 to 236 | CN(C)c1ccc2nc[nH]c(=O)c2c1 |
| 134 to 136 | CC(C)CCCC(NC(=O)OC(C)(C)C)c1nc(-c2cccc(Br)c2)c[nH]1 (configuration not stated) |
| 95 | CCOC(=O)CCc1cc(Cl)ccc1C(=O)CCCNC(=O)CCCNC(C)=O |
| 166 to 167 | Cc1c(-c2ccccc2)oc(=O)c(Sc2ccccc2)c1O |
| 139 to 141 | CCON=Cc1cc(-n2c(=O)n(C)c(=S)n(C)c2=O)ccc1Cl |
| 260 | O=c1[nH]c2cc(Cl)ccc2c(O)c1-c1cccc(S(=O)(=O)c2ccccc2)c1 |
| 285 to 288 | CC(=O)Oc1c2ccc(C(F)(F)F)cc2c(OC(C)=O)c2cc3ccccc3cc12 |
| 245 to 249 | C/C(=C\CNc1ncnc2nc(N(C)C)[nH]c12)CO |

| melting point [°C] | Compound |
| --- | --- |
| 212 to 220 | NC(=O)/C=C1/c2cc(F)ccc2C(O)C1O (configuration not stated) |
| 138 to 139 | N#Cc1ccc(OCCC2CCN(c3cc(Cl)nnc3Cl)CC2)cc1 |
| 136 to 137 | CCCCNC(=O)CCCCCCCSc1nc(-c2ccccc2)c(-c2ccccc2)[nH]1 |
| 144 to 145 | Oc1cccc(CCc2nc(-c3ccsc3)c(-c3ccsc3)o2)c1 |
| 148 to 150 | CCCOc1ccc(C)cc1C(=N)OCC |
| 135 to 136 | O=C(O)CCc1[nH]nc2c1CCCC2 |
| 240 to 242 | CCC(C)(C)c1cc(-c2cccc(CC3SC(N4CCOCC4)=NC3=O)n2)ccc1O (configuration not stated) |
| 172 to 174 | CC(C)(C)OC(=O)NN=C1CCN(C(=O)OC(C)(C)C)CC1 |
| 200 to 202 | CC(C)Oc1ccc(C=C(C=O)C(C=O)=Cc2ccc(OC(C)C)cc2)cc1 |
| 160 to 161 | O=C1CCC(C(=O)N2CCC(Cc3ccccc3)CC2)N1 (configuration not stated) |
| 174 | CN(C)CCOc1ccc(CNC(=O)c2ccc(S(N)(=O)=O)cc2)cc1 |
| 188 | Cc1cccc(-c2cncc(OC3SCC(O)C(O)C3O)c2)n1 (configuration not stated) |
| 145 | O=C(O)CS(=O)(=O)CC(F)(F)F |
| 120 to 122 | O=C(O)c1ccc(OCCCN(CCO)c2ccc(Cl)cc2)cc1 |
| 130 | COc1ccc(CN(C)CCCOc2ccc(NC(=O)c3cccc4c(=O)c5ccccc5[nH]c34)cc2)cc1OC |
| 216 to 218 | CN(c1cccc2cc(C3=NCC(CC(N)=O)S3)[nH]c12)S(=O)(=O)c1nccs1 (configuration not stated) |
| 140 to 142 | CCOC(=O)N1CCN(c2ccc(C3=NNC(=O)CC3C)cc2[N+](=O)[O-])CC1 (configuration not stated) |
| 123 to 124 | COC(=O)c1cc(Cl)ccc1-n1c(C)nnc1CCl |
| 126 to 128 | CCOC(=O)/C=C\C(=O)Oc1cccc(-c2cn3c(n2)sc2ccccc23)c1 |
| 132 to 133 | CCCCCCCCNC(=O)Nc1ccc(Nc2ccc(N(CC)CCNS(C)(=O)=O)cc2C)c2ccccc12 |
| 79 | CC1(C)Cc2c(cc(C(C)(C)C)c(O)c2C(C)(C)C)S1 |
| 134 | COc1cc(N)c(Cl)cc1C(=O)N[C@H]1CCN(CCNc2ncccc2C#N)C[C@H]1OC (relative stereo) |

| melting point [°C] | Compound |
| --- | --- |
| 283 | COc1cc2oc(C(=O)O)cc2cc1Cl |
| 49 to 50 | CCCc1cc2cc(OC)ccc2[nH]1 |
| > 250 | CCCCC[C@H]1CC[C@H](c2ccc(-c3nc(N)nc(N)n3)cc2)CC1 |
| 160 to 161 | CCCCN(CCCC)C(=O)C1=NN(c2ccccc2)C(C(N)=O)=NN1c1ccccc1 |
| 219 | CCOC(=O)C1=C(COC(C)=O)Nc2nc(N)nc(N)c2C1c1cccc([N+](=O)[O-])c1 (configuration not stated) |
| 189 to 191 | CCCCCCCNC(=O)Nc1ccc(OC)cc1C(=O)NCC1CCN(C(c2ccccc2)c2ccccc2)CC1 |
| 158 to 163 | Clc1ccc(C2c3ccc(Cl)cc3-c3ncncc32)cc1 (configuration not stated) |
| 226 to 228 | COc1nc(Br)cnc1NS(=O)(=O)c1cccc2c(NC(=O)OCc3ccccc3)cccc12 |
| 100 to 101 | CCCc1nn(-c2ccc(C(F)(F)F)cn2)cc1CCCOc1ccccc1CC(=O)O |
| 133 to 135 | CCC(=O)CCC1(C(N)=O)c2ccccc2-c2ccccc21 |
| 68 to 70 | CCOC(=O)c1ccc(/C=C/C2CCCN2C(=O)OC(C)(C)C)cc1 (configuration not stated) |
| 81 | COC(=O)[C@H](Cc1cc(F)cc(F)c1)NC(=O)OC(C)(C)C |
| 246 to 248 | NS(=O)(=O)c1ccc(-n2nc(C(F)F)cc2-c2nc3cccc(F)c3s2)cc1 |
| 204 | Nc1cccc(C=C2c3ccccc3CCc3ccccc32)c1 |
| 158 | CN(c1cccc2cc(C3=NCC(CC(=O)N4CCS(=O)(=O)CC4)S3)[nH]c12)S(=O)(=O)c1cccs1 (configuration not stated) |
| 74 to 80 | CCCCC1=NC2(CCCC2)C(=O)N1Cc1ccc(-c2ccccc2S(=O)(=O)Nc2onc(C)c2C)c(COCC)c1 |
| 182 to 183 | CCN1C=C(C(=O)O)C(=O)CC1c1ccc(OC)c(OC)c1 (configuration not stated) |
| 106 to 107 | O=c1n(CCC#Cc2cccc(CF)n2)nc2ccccn12 |
| 189 | O=C(O)Cn1c(=O)c2cc(Cl)ccc2n(Cc2ccc(Br)cc2F)c1=O |
| 224 to 225 | CN(C)Cc1ccc(C=CC(=O)O)s1 |
| 110 to 112 | COc1ccc2cc([C@H](C)C(=O)ON3C(=O)c4ccccc4C3=O)ccc2c1 |
| 228 | Nc1nc(Oc2ccccc2)c2nc[nH]c2n1 |

| Compound | melting point [°C] |
| --- | --- |
| O=C(NC1CCCCC1)c1c(O)c2cc(F)ccc2n(Cc2ccc(F)cc2)c1=O | 118 |
| COC(=O)c1ccc2c(c1)C(SCCO)c1ccccc1CO2 (configuration not stated) | 128 to 130 |
| Cc1ncc(CN2C(=O)c3ccccc3C2=O)n1-c1ccc(Cl)cc1C(=O)c1ccccc1F | 192 to 196 |
| CC(=O)N(C)c1cccc(-c2ccnc3c(C(=O)c4ccccc4)cnn23)c1 | 162 to 164 |
| CC(C)(C)c1ccc(Cn2cc(C(=O)C(=O)O)c3cc(-c4ccc(C(C)(C)C)cc4)ccc32)cc1 | 111 to 112 |
| CSCCCn1c(C)c(C(=O)c2cccc(Cl)c2Cl)c2cccc(Cl)c21 | 87 |
